Where “and” joins values, the source holds several entries; their conditions need not be identical. Equal entries are not always repeated. Where two headings read alike, the source gives them in different places.
Tests used:
γ-secretase complex = γ-secretase complex (Homo sapiens, UniProt P49768); test: APP-C99 counter assay (GSI reporter assay); type: cell-based; set-up: AUC APP: scale not given here; settings: for AUC APP: area under the 14-point dose-response curve, replicates averaged; for remaining activity at 10 µM / remaining activity at 25 µM / remaining activity at […]: 24 h, APP-C99 counter assay, read-out: 3p-DR in % of DMSO counter; for remaining activity at […]: 1,25µM
Procedure, shortened: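 γ-secretase activity reported via APP cleavage driving firefly luciferase, normalized to renilla. After 24 h transfection then 24 h compound exposure, signals were read (0.1 s integration). Triplicate dose–responses fitted by variable-slope four-parameter model for IC50; area under curve also derived.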

Notch signalling = test: Notch reporter assay (12xCSL firefly luciferase / renilla luciferase, HEK293T Notch1ΔE reporter cell line clone #A1-11); type: cell-based; set-up: AUC Notch: scale not given here; settings: for Bottom (Emax): Emax indicated independent from assay constraints, in % (unit assumed); for AUC Notch: area under the 14-point dose-response curve; for activity: 1,25µM
Procedure, shortened: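 Compounds at two-fold concentration in 10 µl medium were brought to one-fold by adding 10 µl holding 4000 Notch reporter cells (clone #A1-11) per well of a 384-well plate. After 24 h, Promega dual-GLO firefly and renilla luciferase were read on a SpectraMaxi3. Dose-response curves were fitted with a log(inhibitor) vs. response variable-slope model.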

[1] = 9p dose response, AUCs averaged when replicates available
[2] = 14p dose response, AUCs averaged when replicates available
[3] = 14p dose response, log10 of averaged IC50
[4] = overview in comparison to compound C, Supplemental Fig. 9
[5] = 14p APP assay DR, bottom constrained to Emax of positive control LY-411575
[6] = Homo sapiens, HEK-293T, 14p Notch assay DR, bottom constrained to Emax of positive control DAPT, read-out: approximated IC50
[7] = Homo sapiens, HEK-293T, 14p Notch assay DR, log10 value, bottom constrained to Emax of positive control DAPT, read-out: approximated LogIC50 (converted)
[8] = Homo sapiens, HEK-293T, 10 µM, primary screen, 24 h, unit from Fig. 2 legend, read-out: Primary screen at 10 µM (Notch reporter signal)
[9] = Homo sapiens, HEK-293T, 10 µM, three-dose confirmation screen, unit from Fig. 2 legend, read-out: Hit confirmation at 10 µM (Notch reporter signal)
[10] = Homo sapiens, HEK-293T, 10µM, 3-point DR confirmation screen, Notch reporter assay, read-out: inhibitor ratio in % of DMSO in 3 point DR
[11] = Homo sapiens, HEK-293T, 10 µM, sheet conf vs counter 10 µM, same values as 3-point DR confirmation screen, read-out: Confirmation screen
[12] = Homo sapiens, HEK-293T, 25µM, 3-point DR confirmation screen, Notch reporter assay, read-out: inhibitor ratio in % of DMSO in 3 point DR
[13] = Homo sapiens, HEK-293T, 25 µM, Notch reporter 3-point dose-confirmation assay, sheet "conf vs counter 25 µM", read-out: Confirmation screen
[14] = Homo sapiens, HEK-293T, 3-point DR confirmation screen, Notch reporter assay, read-out: inhibitor ratio in % of DMSO in 3 point DR
[15] = Homo sapiens, HEK-293T, 14-point dose-response, Fig. 4, read-out: approximated IC50, Notch reporter assay

AUC APP (γ-secretase complex)	Hill-slope (γ-secretase complex; [5])	curve fit information (γ-secretase complex; [5])	IC50 (Notch signalling; [6]) [µM]	IC50 (Notch signalling; [7]) [µM]	SMILES	Bottom (Emax) (Notch signalling; 14p Notch assay DR)	AUC Notch (Notch signalling; replicates averaged)	other results
461.6					C[C@H](NC(=O)Cc1cc(F)cc(F)c1)C(=O)N[C@@H]1C(=O)N(C)c2ccccc2-c2ccccc21 [YO-01027, reference compound]	43.4 and 46.0	383.0	Hill-Slope 9p APP counter assay averaged (γ-secretase complex; 9p dose response): -1.7; AUC 9p APP-counter assay (γ-secretase complex; [1]): 2.30E+02; IC50 (γ-secretase complex; 9p dose response, averaged, read-out: 9p APP counter assay averaged IC50s): 0.017 µM; IC50 (γ-secretase complex; 9p dose response, read-out: approximated IC50s 9p APP counter assay): 0.017 µM; IC50 (γ-secretase complex; 14-point, unit inferred, some fits outside of tested concentration range, read-out: approximated IC50s 14p APP-counter assay): 0.021 µM; Bottom (Emax) (γ-secretase complex; 14p APP assay DR, Emax indicated independent from assay constraints): 40.6 and 48.3; IC50 (γ-secretase complex; 14p APP assay DR, Notch inhibitor controls, no bottom constraint named, read-out: approximated IC50): 0.016 µM and 0.027 µM; approximated LogIC50 [M] (γ-secretase complex; 14p APP assay DR, log10 value, Notch inhibitor controls, no bottom constraint named): -7.8 M and -7.6 M; AUC. 14p APP-counter assay (γ-secretase complex; [2]): 4.62E+02; 14p APP counter assay averaged IC50s (log) (γ-secretase complex; [3]): -7.7; APP assay (γ-secretase complex; [4]): higher potency; AUC 9p Notch reporter assay (Notch signalling; [1]): 1.99E+02; IC50 (Notch signalling; 14-point, unit inferred, replicates averaged, read-out: approxiated IC50s 14p Notch reporter assay): 0.0017 µM; approximated LogIC50 [M] (Notch signalling; 14p Notch assay DR, log10 value, Notch inhibitor controls, no bottom constraint named): -8.7 M; IC50 (Notch signalling; 14p dose response, single replicates, read-out: approximated IC50s 14p Notch reporter assay): 0.002 µM and 0.0015 µM; AUC 14p Notch reporter assay (Notch signalling; [2]): 3.83E+02; 14p Notch reporter assay averaged IC50s (log) (Notch signalling; [3]): -8.8; Notch assay (Notch signalling; [4]): higher potency
774.2	-2.25e-11	IC50 indeterminate	3.5	3.16	Cc1[nH]c2cccc(C(=O)N3CCCCC3CCNC(=O)c3ccccc3)c2c1C (stereo not drawn) [CBK285976]		532.0	Hill-slope (γ-secretase complex; 14p APP assay DR, bottom constrained to Emax of positive control CB-103): 0.344; remaining activity at 10 µM (γ-secretase complex): 145%; remaining activity at 25 µM (γ-secretase complex): 135%; remaining activity at […] (γ-secretase complex): 126%; IC50 (Notch signalling; Homo sapiens, HEK-293T, 14p Notch assay DR, averaged when replicate measurements were available, read-out: averaged IC50s): 3.2 µM; IC50 (Notch signalling; Homo sapiens, HEK-293T, 14p Notch assay DR, bottom constrained to Emax of positive control RO4929097, read-out: approximated IC50): 3 µM; IC50 (Notch signalling; Homo sapiens, HEK-293T, 14p Notch assay DR, log10 value, bottom constrained to Emax of positive control RO4929097, read-out: approximated LogIC50 (converted)): 3.16 µM; activity at 10 µM (Notch signalling; [8]): 37.7%; activity at 10 µM (Notch signalling; [9]): 54.9%; activity at 10 µM (Notch signalling; [10]): 54.9%; activity at 10 µM (Notch signalling; [11]): 54.9%; activity at 25 µM (Notch signalling; [12]): 38.3%; activity at 25 µM (Notch signalling; [13]): 38.3%; activity (Notch signalling; [14]): 100%
496.5	-8.75e-10	IC50 indeterminate	36	39.8	COc1cc(-c2cn3ccnc3c(Nc3ccccc3)n2)cc(OC)c1OC [CBK066200]	65.6	329.0	
499.9		IC50 indeterminate			O=C(Nc1nnc(-c2ccc3c(c2)OCCO3)o1)c1cccc(F)c1 [CBK287402]	87.8	353.0	
508.5	0.0127		> 40	> 40	CC(=O)Nc1cccc(-c2cn3ccnc3c(Nc3cccc(OC(F)(F)C(F)F)c3)n2)c1 [CBK037499]	77.1	348.0	
735.5		IC50 indeterminate	10	10	CCn1ncc(CN(C)C(=O)c2cc(-c3cccnc3)nc3ccc(Cl)cc23)c1C [CBK276708]	29.2	559.0	IC50 (Notch signalling; [15]): > 5 µM
737.0	0.0225				Cc1c(C(C)NC(=O)c2[nH]c3ccccc3c2Cl)cnn1C (stereo not drawn) [CBK246640]	91.1	612.0	approximated IC50, Notch reporter assay (Notch signalling; 14-point dose-response, Fig. 4): Indeterminate
720.8		IC50 indeterminate	> 5	> 5	Cc1ccc2cc(C(=O)NC(C)c3cnn(C)c3C)[nH]c2c1 (stereo not drawn) [CBK246728]		605.0	IC50 (Notch signalling; [15]): > 5 µM
502.9		IC50 indeterminate	3	3.16	O=C(Nc1nnc(-c2ccc3c(c2)OCCO3)o1)c1ccccc1F [CBK287405]	15.0	288.0	remaining activity at 10 µM (γ-secretase complex): 137%; remaining activity at 25 µM (γ-secretase complex): 153%; remaining activity at […] (γ-secretase complex): 124%; activity at 10 µM (Notch signalling; [8]): 36.4%; activity at 10 µM (Notch signalling; [9]): 44%; activity at 10 µM (Notch signalling; [10]): 44%; activity at 10 µM (Notch signalling; [11]): 44%; activity at 25 µM (Notch signalling; [12]): 37.6%; activity at 25 µM (Notch signalling; [13]): 37.6%; activity (Notch signalling; [14]): 85.1%
533.6	0.0876				Cc1ccccc1C(=O)NC(=S)Nc1sc2c(c1C(N)=O)CCC2 [CBK262107]	90.8	379.0	IC50 (Notch signalling; [15]): > 40 µM
444.5	-0.6				CCOC(=O)c1c(NC(=O)NCc2cccnc2)sc2c1CCC2 [CBK307585]	71.6	338.0	IC50 (Notch signalling; [15]): 6.6 µM
566.4	0.121		5	5.01	Cc1ccccc1Nc1nc(N)nc(CN2CCCC(C(F)(F)F)C2)n1 (stereo not drawn) [CBK305073]	32.5	305.0	remaining activity at 10 µM (γ-secretase complex): 129%; remaining activity at 25 µM (γ-secretase complex): 156%; remaining activity at […] (γ-secretase complex): 92.5%; activity at 10 µM (Notch signalling; [8]): 39.6%; activity at 10 µM (Notch signalling; [9]): 65.1%; activity at 10 µM (Notch signalling; [10]): 65.1%; activity at 10 µM (Notch signalling; [11]): 65.1%; activity at 25 µM (Notch signalling; [12]): 48.4%; activity at 25 µM (Notch signalling; [13]): 48.4%; activity (Notch signalling; [14]): 102%
493.6	0.0389		5.6	5.01	COc1cc(Nc2nc(-c3cccc(NC(C)=O)c3)cn3ccnc23)cc(OC)c1OC [CBK038093]	21.1	304.0	remaining activity at 10 µM (γ-secretase complex): 180%; remaining activity at 25 µM (γ-secretase complex): 242%; remaining activity at […] (γ-secretase complex): 132%; activity at 10 µM (Notch signalling; [8]): 46.2%; activity at 10 µM (Notch signalling; [9]): 56.1%; activity at 10 µM (Notch signalling; [10]): 56.1%; activity at 10 µM (Notch signalling; [11]): 56.1%; activity at 25 µM (Notch signalling; [12]): 41.5%; activity at 25 µM (Notch signalling; [13]): 41.5%; activity (Notch signalling; [14]): 96.6%
828.0	0.3				CC(=O)Nc1cccc(-c2cn3ccnc3c(Nc3ccc(N4CCOCC4)cc3)n2)c1 [CBK066362]	95.3	529.0	
668.5	0.00215				Oc1cc(-c2ccccc2)nn1-c1nc2ccccc2s1 [CBK016481]	98.5	626.0	approximated IC50, Notch reporter assay (Notch signalling; 14-point dose-response, Fig. 4): Indeterminate

SMILES	AUC APP (γ-secretase complex)	Hill-slope (γ-secretase complex; [5])	curve fit information (γ-secretase complex; [5])	IC50 (Notch signalling; [6]) [µM]	IC50 (Notch signalling; [7]) [µM]	Bottom (Emax) (Notch signalling; 14p Notch assay DR)	AUC Notch (Notch signalling; replicates averaged)	other results
Cc1ccccc1CN1CCC2(CC1)OCCc1c2n(C)c2ccccc12 [CBK040366]	658.0	4.29e-13	IC50 indeterminate			104.0	632.0	approximated IC50, Notch reporter assay (Notch signalling; 14-point dose-response, Fig. 4): Indeterminate
Cc1ccccc1CN1CCC2(CC1)OCCc1c2[nH]c2ccc(F)cc12 [CBK040334]	704.0	0.00509	IC50 indeterminate	8.9	7.94	~ 28,93	607.0	IC50 (Notch signalling; [15]): > 5 µM
O=C1NC(c2cccnc2)Nc2sc3c(c21)CCCC3 (stereo not drawn) [CBK072377]	497.7	0.0091				89.1	364.0	approximated IC50, Notch reporter assay (Notch signalling; 14-point dose-response, Fig. 4): Indeterminate
Fc1ccc2[nH]c3c(c2c1)CCOC31CCN(Cc2ccccc2-c2ccccc2)CC1 [CBK039913]	726.2	0.0284		1.2	1.26	44.4	588.0	

From article PMC13242511, “Disrupting Notch signalling by a small molecule inhibiting dihydroorotate dehydrogenase activity” (Scientific Reports, 2026)
